In patent publication US10610535B2 (The Regents of the University of California, priority 2005, dated 2020):

Experiments:
[1] = tested on: post-partum patient with relapsing remitting multiple sclerosis; assay: Case of post-partum relapsing remitting MS patient; assay type: in vivo, human
Method: A patient was diagnosed as having relapsing remitting multiple sclerosis. Following the delivery of their first child (now […]), the patient was treated only with Copaxone and relapsed at 6 weeks. Following the delivery of their second child (now […]), the patient was again treated with Copaxone alone and again relapsed, this time at 4.5 months. Following a subsequent pregnancy, the patient was treated with 8 mg estriol/day in an attempt to prevent their post partum relapses.
Following the birth of the patient's third child (now 6 months), the patient resumed treatment with Copaxone as before. However, on day 10 post-partum they began taking estriol 8 mg/daily in an oral dosage form. […] Since monthly brain MRIs with gadolinium to detect enhancing MS lesions are more sensitive for inflammatory disease activity than relapses, the patient underwent serial monthly MRIs at post partum months 4, 5, and 6.
The patient doubled the progesterone minipill for 2 weeks to stabilize the endometrium. Otherwise no adverse events have been reported.

[2] = tested on: uterus (positive control tissue) of ovariectomized C57BL/6 mice; assay: Uterine weights to assess dosing (Example 6); assay type: in vivo
Method: Uterine weight was used as a positive control to assess dosing of estrogen agonists. Daily subcutaneous injections of vehicle, estradiol, PPT, or DPN, as well as a combination of ITT with DPN, were administered for ten days at indicated doses to ovariectomized mice. Following euthanasia, the uterus was extracted, then fat, connective tissue, and excess fluid removed in order to obtain the uterine weight, as described. EAE clinical disease severity was compared between treatment groups using the Friedman test; histopathological changes were assessed using 1×4 ANOVAs; uterine weights, proliferative responses and cytokine levels were compared between treatment groups using Student t-test, and time on rotorod was compared between treatment groups using ANOVA.

[3] = tested on: C57BL/6 mice with EAE; assay: Clinical severity of MOG 35-55 induced active EAE (Example 6); assay type: in vivo; settings: vs vehicle
[4] = tested on: MOG 35-55 stimulated splenocytes; assay: Autoantigen specific cytokine production by splenocytes in C57BL/6 EAE (Example 6); assay type: in vivo, mice; settings: vs vehicle
Method: (§1) Spleens were harvested either after deep anesthesia prior to perfusion or after euthanasia. Splenocytes were stimulated with the indicated autoantigens at […], and proliferation assessed using standard H3 incorporation assays, as described. Supernatants were collected after 48 and 72 hours, and levels of TNF-i, IFN-γ, 11,6, and 1 L5 were determined by cytometric bead array (BD Biosciences), as described. EAE clinical disease severity was compared between treatment groups using the Friedman test; histopathological changes were assessed using 1×4 ANOVAs; uterine weights, proliferative responses and cytokine levels were compared between treatment groups using Student t-test, and time on rotorod was compared between treatment groups using ANOVA.

[5] = tested on: SJL mice with EAE; assay: PLP 139-151 induced active EAE in SJL mice, relapses; assay type: in vivo
[6] = tested on: PLP 139-151 stimulated splenocytes; assay: Splenic immune responses (proliferation, cytokines) in SJL mice with EAE; assay type: in vivo; settings: day 52 after disease induction, vs vehicle
Method: as §1

[7] = tested on: spinal cords of mice with EAE; assay: Spinal cord histopathology and immunohistochemistry in EAE (Example 6); assay type: in vivo
Text: Mice were deeply anesthetized with isoflurane and perfused transcardially with ice-cold 0.9% saline, followed by 10% formalin. Spinal cord columns were removed and post-fixed overnight in 10% formalin and cryoprotected with 20% sucrose solution in PBS. Spinal cords were removed from the column and cut in 3 parts (cervical, thoracic and lumbar) and embedded in gelatin/sucrose mix. Spinal cord regions in gelatin were further postfixed and stored in 20% sucrose. Free-floating sections (25 μm thick) were cut coronally with a sliding microtome and collected serially in PBS.
Serial sections were mounted on slides and stained with Hematoxylin & eosin (H&E) or Nissl. Consecutive sections were also examined by immunohistochemistry. Briefly, 25 μm free-floating sections were permeabilized in 0.3% Triton X-100 in PBS and blocked with 10% normal goat serum. White matter immunostaining was enhanced by treating sections with 95% ethanol/5% acetic acid for 15 minutes prior to permeabilization and blocking. To detect specific cell types and structures, sections were pre-incubated with primary antibodies in PBS solution containing 2% NGS for 2 hours at room temperature, then overnight at […]. The following primary antibodies were used: anti-133 tubulin and anti-neurofilament-NF200 (monoclonal, Chemicon; polyclonal Sigma Biochemical), anti-neuronal specific nuclear protein (NeuN), anti-CD4S (Chemicon), and anti-MW (Chemicon). The second antibody step was performed by labeling with antibodies conjugated to TRITC, FITC and Cy5 (Vector Labs and Chemicon). IgG-control experiments were performed for all primary antibodies, and no staining was observed under these conditions. To assess the number of cells, a nuclear stain 4′,6-Diamidino-2-phenylindole, DAPI (2 ng/ml; Molecular Probes) was added for 15 minutes prior to final washes after secondary antibody addition. The sections were mounted on slides, dried and coverslipped in fluoromount G (Fisher Scientific).
To quantify immunostaining results, sections from spinal cord levels T1-T5 were examined, six from each mouse, with n=3 mice per treatment group, for a total of 18 sections per treatment group. Images were captured under microscope (4×, 10× or 40×) using the DP70 Image software and a DP70 camera (both from Olympus). Identical tight intensity and exposure times were applied to all photographs from each experimental set. Images from the same areas of spinal cord were compared (TI-IS) and were acquired separately from delineated whole gray and white mailer regions. The middle region of the ventral horn was the focus for gray matter analysis, while the area lateral to the ventral horn was the focus for white matter analysis. Six gray matter and six white matter pictures were collected from the two sides of TI-IS sections (100 jim apart) from three animals in each treatment group. All images were converted to grayscale and then analyzed by density measurement with ImageJ vi 0.29 (the Windows version of NIH Image), downloaded from rsb.info.nih.gov/ij. A fixed threshold range of 0 to 160 was chosen to highlight the staining signals in normal spinal cord sections, and the total area within this range was measured, averaged, and compared.
Increase in total number of infiltrating cells after induction of EAE was measured by density measurements of DAPI nuclei in the whole white matter. Neuronal cells were quantified by counting the NeuN^+/β3-tubulin^+/DAPI^+ cells per mm2 in the whole gray matter. Both white and gray matter assessments occurred in the TI-IS spinal cord sections. Laser scanning confocal microscopic scans at 40× were performed on Mac 3^+/β3-tubulin^+ immunostained spinal cord sections corresponding to levels 11-15 ventral horn. […]

[8] = tested on: C57BL/6 mice with EAE; assay: Rotarod testing of motor performance during EAE; assay type: in vivo
Method: Motor behavior was tested up to two times per week for each mouse using a rotarod apparatus (Med Associates mc, St. Albans, Vt.). Briefly, animals were placed on a rotating horizontal cylinder for a maximum of 200 seconds. The amount of time the mouse remained walking on the cylinder, without falling, was recorded. Each mouse was tested on a speed of 3-30 rpm and given three trials for any given day. The three trials were averaged to report a single value for an individual mouse, and then averages were calculated for all animals within a given treatment group. The first two trial days, prior to immunization (day 0), served as practice trials.
EAE clinical disease severity was compared between treatment groups using the Friedman test; histopathological changes were assessed using 1×4 ANOVAs; uterine weights, proliferative responses and cytokine levels were compared between treatment groups using Student t-test, and time on rotorod was compared between treatment groups using ANOVA.

[9] = tested on: spinal cords of mice with EAE; assay: Spinal cord histopathology and immunohistochemistry in EAE (Example 5); assay type: in vivo; settings: acute phase of EAE
Text: Mice were deeply anesthetized with isoflurane and perfused transcardially with ice-cold 0.9% saline, followed by 10% formalin. Spinal cord columns were removed and postfixed overnight in 10% formalin and cryoprotected with 20% sucrose solution, in PBS. Spinal cords were removed from the column, cut in three parts (cervical, thoracic, and lumbar), and embedded in gelatin/sucrose mix. Spinal cord regions in gelatin were further postfixed and stored in 20% sucrose. Free-floating sections (25 μm thick) were cut coronally with a sliding microtome and collected serially in PBS. […]
To quantify immunostaining results, sections from spinal cord levels T1-T5 were examined, six from each mouse, with n=3 mice per treatment group, for a total of 18 sections per treatment group. […] All images were converted to grayscale and then analyzed by density measurement with ImageJ version 1.29 (the Windows version of NIH Image), downloaded from rsb.info.nih.gov/ij. A fixed threshold range of 0-160 was chosen to highlight the staining signals in normal spinal cord sections, and the total area within this range was measured, averaged, and compared.
Increase in total number of infiltrating cells after induction of EAE was measured by density measurements of DAPI+nuclei in the whole white matter. Neuronal cells were quantified by counting the NeuN+/β3-tubulin+/DAPI+ cells per square millimeter in the whole gray matter. […]

[10] = early (day 19) and later (day 40) stages of EAE
[11] = day 19 and day 40, vs normal mice

Compound: glatiramer acetate copolymer-1 [Copaxone]
- Time to post-partum relapse ([1]; Copaxone alone, after delivery of second child): 4.5 months
- Time to post-partum relapse ([1]; Copaxone only, after delivery of first child): 6 weeks

Compound: N#CC(Cc1ccc(O)cc1)c1ccc(O)cc1 (centres unmarked) [DPN, Diarylpropionitrile]
- PPT 3.3 mg/kg/day mediated increase in uterine weight ([2]; DPN 8 mg/kg/day in combination with PPT, 10 days): antagonized
- Uterine weight ([2]; DPN alone 8 mg/kg/day s.c. for 10 days, ovariectomized C57BL/6): no effect on uterine weight
- Clinical scores (EAE 0-5 scale) ([3]; DPN 8 mg/kg/day s.c., ovariectomized C57BL/6, early in disease (up to day 20 after induction)): not significantly different
- Clinical scores (EAE 0-5 scale) ([3]; DPN 8 mg/kg/day s.c., ovariectomized C57BL/6, later during EAE (following day 30 after induction)): significantly improved
- Clinical scores (EAE 0-5 scale) ([3]; DPN, ovariectomized ERβ KO C57BL/6 mice): no different
- Anti-inflammatory cytokine IL5 [4, 10]: not statistically different from vehicle treatment
- Levels of proinflammatory cytokines (TNFα, IFNγ, and IL6) [4, 10]: not statistically different from vehicle treatment
- IL10 production [4]: No differences
- Relapses (mice with relapse / mice) ([5]; DPN treated SJL mice, relapses between days 36 and 52, vehicle 10/13): 5/13
- Relapses (percent of mice) ([5]; DPN treated SJL mice, relapses between days 36 and 52, vehicle 77%): 33%
- Incidence, day of onset, peak clinical scores ([5]; DPN vs vehicle, SJL mice): no difference
- Cytokine (TNFα, IFNγ) production during the PLP 139-151 specific response [6]: No significant differences
- Proliferation during the PLP 139-151 specific response [6]: No significant differences
- White matter cell density, myelin density, axonal numbers and NeuN+ cells ([7]; ERβ knock out mice with EAE, day 38-40): does not prevent white and gray matter pathology
- MBP immunoreactivity in dorsal column (myelin density) [7, 11]: no significant decreases
- Neurofilament stained axon numbers in white matter [7, 11]: no significant reduction in axon numbers
- NeuN+ cell numbers in gray matter ([7]; early (day 19) and later (day 40) time points, vs healthy controls): fewer, but not significantly different from those in healthy controls
- CD45 staining in white matter ([7]; early and later time points, vs vehicle treated EAE): did not have reduced CD45 staining
- Inflammation, white matter cell density (DAPI+ cells) of thoracic cord ([7]; early stage of EAE (day 19), vs vehicle treated EAE): not significantly different from those in vehicle treated
- Inflammation, white matter cell density (DAPI+ cells) of thoracic cord ([7]; later time point (day 40), vs vehicle): no different from that in vehicle treated
- Mean time on rotarod (motor function) ([8]; ERβ KO mice with EAE, later phase of disease): no improvement was observed
- Mean time on rotarod (motor function) ([8]; ovariectomized wild type C57BL/6 with EAE, after day 30): significant recovery of motor function

Compound: CCCc1c(-c2ccc(O)cc2)nn(-c2ccc(O)cc2)c1-c1ccc(O)cc1 [PPT, propyl pyrazole triol]
- Decrease of Mac 3+ cells in gray matter compared with vehicle-treated EAE mice [9]: ~65%

Compound: C[C@]12CC[C@@H]3c4ccc(O)cc4CC[C@H]3[C@@H]1CC[C@@H]2O [estradiol, 17β-estradiol]
- Decrease of Mac 3+ cells in gray matter compared with vehicle-treated EAE mice [9]: ~65%
